Reference: US10195201B2, “Heteroaryl-pyrimidinone compounds as PDE2 inhibitors” (Merck Sharp & Dohme Corp., priority 2015, dated 2019)
Like-named read-outs stand apart in the source and are kept apart here.

Experiments:
human PDE2A1 = human PDE2A1 (Homo sapiens (Human), UniProt O00408); experiment: PDE2 fluorescence polarization (IMAP FP) inhibition assay, human enzyme; type: biochemical
Experimental: (§1) The activity of the compounds in accordance with the present invention as PDE2 inhibitors may be readily determined using a fluorescence polarization (FP) methodology (Huang, W., et al., J. Biomol Screen, 2002, 7: 215).
Selectivity for PDE2, as compared to other PDE families, was assessed using the IMAPR technology. Human PDE10A2 enzyme was prepared from cytosolic fractions of transiently transfected HEK cells. All other PDE's were GST Tag human enzyme expressed in insect cells and were obtained from BPS Bioscience (San Diego, Calif.): PDE1A (Cat#60010), human PDE2A1(Cat#60020), PDE3A (Cat#60030), PDE4A1A (Cat#60040), PDE5A1 (Cat#60050), PDE6C (Cat#60060), PDE7A (Cat#60070), PDE8A1 (Cat#60080), PDE9A2 (Cat#60090), PDE11A4 (Cat#60110).
Assays for PDE 1 through 11 were performed in parallel at room temperature in 384-well microtiter plates with an incubation volume of 20.2 μL. Solutions of test compounds were prepared in DMSO and serially diluted with DMSO to yield 30 μL of each of ten solutions differing by 3-fold in concentration, at 32 serial dilutions per plate. […] A Labcyte POD 810 (Labcyte, Sunnyvale, Calif.) was used to dispense 200 nL from each well of the titration plate to make eleven copies of the assay plate for each titration, one copy for each PDE enzyme. A solution of each enzyme (dilution from aliquots, sufficient to produce 20% substrate conversion) and a separate solution of FAM-labeled cAMP or FAM-labeled cGMP from Molecular Devices (Sunnyvale, Calif., product # R7506 or cGMP#R7508), at a final concentration of 50 nM were made in the assay buffer (10 mM Tris HCl, pH 7.2, 10 mM MgCl2, 0.05% NaN3 0.01% Tween-20, and 1 mM DTT). Note that the substrate for PDE2 is 50 nM FAM cAMP containing 1000 nM of cGMP. The enzyme and the substrate were then added to the assay plates in two consecutive additions of 10 μL and then shaken to mix. The reaction was allowed to proceed at room temperature for 60 minutes. A binding solution was then made from the kit components, comprised of 80% Solution A, 20% Solution B and binding reagent at a volume of 1/600 the total binding solution. The enzymatic reaction was stopped by addition of 60 μL of the binding solution to each well of the assay plate. The plates were sealed and shaken for 10 seconds. The plates were incubated at room temperature for one hour, then the parallel and perpendicular fluorescence was measured using a Tecan Genios Pro plate reader (Tecan, Switzerland). The apparent inhibition constants for the compounds against all 11 PDE's was determined from the parallel and perpendicular fluorescent readings as described for PDE10 FP assay using the following apparent KM values for each enzyme and substrate combination: PDE1A (FAM cGMP) 70 nM, human PDE2A1 (FAM cAMP) 10,000 nM, PDE3A (FAM cAMP) 50 nM, PDE4A1A (FAM cAMP) 1500 nM, PDE5A1 (FAM cGMP) 400 nM, PDE6C (FAM cGMP) 700 nM, PDE7A (FAM cAMP) 150 nM, PDE8A1 (FAM cAMP) 50 nM, PDE9A2 (FAM cGMP) 60 nM, […] (FAM cAMP) 150 nM, PDE11A4 (FAM cAMP) 1000 nM. The intrinsic PDE2 inhibitory activity of a compound which may be used in accordance with the present invention may be determined by these assays. […]

Rhesus PDE2A3 = Rhesus PDE2A3 (Macaca mulatta, UniProt B3VTJ2); experiment: PDE2 fluorescence polarization (IMAP FP) inhibition assay, rhesus enzyme; type: biochemical, rhesus macaque
Rhesus PDE2A3, sequence (B3VTJ2 1-941): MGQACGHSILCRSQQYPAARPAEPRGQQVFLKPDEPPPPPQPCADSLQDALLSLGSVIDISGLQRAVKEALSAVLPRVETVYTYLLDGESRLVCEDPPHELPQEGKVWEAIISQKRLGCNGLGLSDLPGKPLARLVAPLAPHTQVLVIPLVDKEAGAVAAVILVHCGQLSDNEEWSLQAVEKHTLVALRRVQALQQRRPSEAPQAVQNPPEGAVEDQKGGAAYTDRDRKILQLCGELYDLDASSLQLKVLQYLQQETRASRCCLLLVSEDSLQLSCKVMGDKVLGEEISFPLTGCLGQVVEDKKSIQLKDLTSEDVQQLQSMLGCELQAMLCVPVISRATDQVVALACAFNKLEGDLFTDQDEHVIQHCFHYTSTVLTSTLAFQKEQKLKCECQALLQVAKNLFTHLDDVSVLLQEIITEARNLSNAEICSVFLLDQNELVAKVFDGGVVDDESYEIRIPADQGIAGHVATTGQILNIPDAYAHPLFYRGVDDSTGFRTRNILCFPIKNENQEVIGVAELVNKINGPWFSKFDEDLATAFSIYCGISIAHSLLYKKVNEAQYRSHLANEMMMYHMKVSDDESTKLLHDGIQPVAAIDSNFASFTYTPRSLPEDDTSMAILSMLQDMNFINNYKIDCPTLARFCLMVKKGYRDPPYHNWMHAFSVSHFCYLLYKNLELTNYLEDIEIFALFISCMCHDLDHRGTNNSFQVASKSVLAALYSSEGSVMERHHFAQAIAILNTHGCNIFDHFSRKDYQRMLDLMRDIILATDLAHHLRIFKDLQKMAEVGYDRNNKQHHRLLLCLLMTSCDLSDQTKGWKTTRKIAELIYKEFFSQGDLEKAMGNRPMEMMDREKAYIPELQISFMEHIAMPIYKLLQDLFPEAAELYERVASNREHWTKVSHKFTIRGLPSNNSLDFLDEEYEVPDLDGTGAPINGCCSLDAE
Experimental: as §1
In a typical experiment the PDE2 inhibitory activity of the compounds of the present invention was determined in accordance with the following experimental method. Rhesus PDE2A3 was amplified from rhesus macaque brain cDNA (Biochain Institute, Hayward, Calif.) using primers based on human PDE2A sequence (accession NM_002599.3) where the forward primer containing a Kozak consensus was 5′-[…]-3′ and the reverse primer was 5′-[…]-3′. Amplification with Easy-A High-Fidelity PCR cloning enzyme (Stratagene, La Jolla, Calif.) was 95° C. for 2 minutes followed by thirty three cycles of 95° C. for 40 seconds, 52° C. for 30 seconds, and 72° C. for 2 minutes 48 seconds. Final extension was 72° C. for 7 minutes. The PCR product was TA cloned into pcDNA3.3-TOPO (Invitrogen, Carlsbad, Calif.) according to standard protocol. A consensus sequence was developed from multiple clones and then deposited into GenBank (EU812167). AD293 cells (Stratagene, La Jolla, Calif.) with 70-80% confluency were transiently transfected with rhesus PDE2A3/pcDNA3.3-TOPO using Lipofectamine 2000 according to manufacturer specifications (Invitrogen, Carlsbad, Calif.). Cells were harvested 48 hours post-transfection and lysed by sonication (setting 3, 10×5 sec pulses) in a buffer containing 20 mM HEPES pH 7.4, 1 mM EDTA and Complete Protease Inhibitor Cocktail Tablets (Roche, Indianapolis, Ind.). Lysate was collected by centrifugation at 75,000×g for 20 minutes at 4° C. and supernatant utilized for evaluation of PDE2 activity. The fluorescence polarization assay for cyclic nucleotide phosphodiesterases was performed using an IMAP® FP kit supplied by Molecular Devices, Sunnyvale, Calif. (product # R8139). […] Assays were performed at room temperature in 384-well microtiter plates with an incubation volume of 20.2 μL. Solutions of test compounds were prepared in DMSO and serially diluted with DMSO to yield 8 μL of each of 10 solutions differing by 3-fold in concentration, at 32 serial dilutions per plate. […] 0% of inhibition is determined by using DMSO (1% final concentrations).
A Labcyte Echo 555 (Labcyte, Sunnyvale, Calif.) is used to dispense 200 nL from each well of the titration plate to the 384 well assay plate. Ten microliters of a solution of enzyme (1/2000 final dilution from aliquots; sufficient to produce 20% substrate conversion) was added to the assay plate. Next 10 uL of a separate solution of the substrate FAM-labeled cAMP (50 nM final concentration product # R7506 from Molecular Devices) and the activator cGMP (1 uM final concentration), prepared in the assay buffer (10 mM Tris HCl, pH 7.2, 10 mM MgCl2, 0.05% NaN3 0.01% Tween-20, and 1 mM DTT) was added to the assay plate and shaken to mix. The reaction is allowed to proceed at room temperature for 60 minutes. A binding solution is then made from the kit components, comprised of 80% Solution A, 20% Solution B and binding reagent at a volume of 1/600 the total binding solution. The enzymatic reaction is stopped by addition of 60 μL of the binding solution to each well of the assay plates and the plates are sealed and shaken for 30 seconds. The plate was incubated at room temperature for at least one hour prior to determining the fluorescence polarization (FP). The parallel and perpendicular fluorescence of each well of the plate was measured using a Tecan Genios Pro plate reader (Tecan, Switzerland) or Perkin Elmer EnVision™ plate reader (Waltham, Mass.). Fluorescence polarization (mP) was calculated from the parallel (S) and perpendicular (P) fluorescence of each sample well and the analogous values for the median control well, containing only substrate (So and Po), using the following equation: Polarization (mP)=1000*(S/So−P/Po)/(S/So+P/Po).

[1] = LabA, read-out: hPDE2 Ki (nM) LabA
[2] = LabA, read-out: rhPDE2 Ki (nM) LabA
[3] = LabB, read-out: hPDE2 Ki (nM) LabB
[4] = LabB, read-out: rhPDE2 Ki (nM) LabB

human PDE2A1, sequence (O00408 other isoform, or with tags, fused parts or gaps): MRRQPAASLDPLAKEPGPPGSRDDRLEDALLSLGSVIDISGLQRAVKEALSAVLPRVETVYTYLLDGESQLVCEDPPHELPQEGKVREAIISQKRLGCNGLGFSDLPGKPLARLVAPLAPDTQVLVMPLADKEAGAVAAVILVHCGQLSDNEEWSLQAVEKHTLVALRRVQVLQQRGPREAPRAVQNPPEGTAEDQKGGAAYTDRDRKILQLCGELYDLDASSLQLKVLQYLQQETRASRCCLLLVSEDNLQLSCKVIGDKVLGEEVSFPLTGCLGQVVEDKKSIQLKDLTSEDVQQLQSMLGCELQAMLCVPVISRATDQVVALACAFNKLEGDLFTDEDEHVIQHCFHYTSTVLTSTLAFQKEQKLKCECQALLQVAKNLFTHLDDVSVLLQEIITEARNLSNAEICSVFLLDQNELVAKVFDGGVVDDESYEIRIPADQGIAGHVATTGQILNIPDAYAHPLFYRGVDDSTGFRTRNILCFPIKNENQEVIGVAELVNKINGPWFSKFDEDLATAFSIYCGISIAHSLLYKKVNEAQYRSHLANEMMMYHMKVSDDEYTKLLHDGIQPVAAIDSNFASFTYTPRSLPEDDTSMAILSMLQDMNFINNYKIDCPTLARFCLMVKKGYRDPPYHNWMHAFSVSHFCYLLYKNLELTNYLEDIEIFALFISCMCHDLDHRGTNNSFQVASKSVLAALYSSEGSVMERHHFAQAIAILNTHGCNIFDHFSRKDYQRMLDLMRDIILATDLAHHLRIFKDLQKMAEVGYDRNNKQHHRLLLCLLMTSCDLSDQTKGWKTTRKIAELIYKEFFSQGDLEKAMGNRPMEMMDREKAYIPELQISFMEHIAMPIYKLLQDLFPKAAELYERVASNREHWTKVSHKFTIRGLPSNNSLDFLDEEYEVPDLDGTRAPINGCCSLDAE

Ki (human PDE2A1; [3]) [nM] | SMILES | further results
22 | Cc1nc(-c2nnc([C@H](C)c3ccc(C(F)(F)F)cc3F)s2)cc(=O)[nH]1 (single isomer, unassigned) [Example 4] | Ki (Rhesus PDE2A3; [4]): 20 nM
212 | Cc1nc(-c2cc(C(C)c3ccc(OC(F)(F)F)c(F)c3)ncn2)cc(=O)[nH]1 (single isomer, unassigned) [Example 41, (S)- or (R)-6′-(1-(3-fluoro-4-(trifluoro-methoxy)phenyl)ethyl)-2-methyl-[4,4′-bipyrimidin]-6(1H)-one] | –
1720 | Cc1nc(-c2cc([C@H](C)c3ccc(C(C)(C)O)cc3)ncn2)cc(=O)[nH]1 (single isomer, unassigned) [Example 47] | –
39 | Cc1nc(-c2cc([C@@H](C)c3ccc(C(F)(F)F)cc3F)ncn2)cc(=O)[nH]1 (single isomer, unassigned) [Example 30] | –
174 | Cc1nc(-c2cc(C(C)c3ccc(C(F)F)c(F)c3)ncn2)cc(=O)[nH]1 (single isomer, unassigned) [Example 39, (S)- or (R)-6′-(1-(4-(difluoro-methyl)-3-fluoro-phenyl)ethyl)-2-methyl-[4,4′-bipyrimidin]-6(1H)-one] | –
13 | Cc1nc(-c2cc(C(C)c3ccc(OC(F)F)c(F)c3)ncn2)cc(=O)[nH]1 (single isomer, unassigned) [Example 34, (R)- or (S)-6′-(1-(4-(difluoro-methoxy)-3-fluorophenyl)ethyl)-2-methyl-[4,4′-bipyrimidin]-6(1H)-one] | –
890 | Cc1nc(-c2cc([C@H](C)c3ccc(C(C)(C)O)cc3)ncn2)cc(=O)[nH]1 (single isomer, unassigned) [Example 46] | –
65 | Cc1nc(-c2cc(C(C)c3ccc(C(C)(F)F)cc3)ncn2)cc(=O)[nH]1 (single isomer, unassigned) [Example 37, (S)- or (R)-6′-(1-(4-(1,1-difluoro-ethyl)phenyl)ethyl)-2-methyl-[4,4′-bipyrimidin]-6(1H)-one] | –
232 | Cc1nc(-c2cc(C(C)c3ccc(OC(F)F)c(F)c3)ncn2)cc(=O)[nH]1 (single isomer, unassigned) [Example 35, (S)- or (R)-6′-(1-(4-(difluoro-methoxy)-3-fluorophenyl)ethyl)-2-methyl-[4,4′-bipyrimidin]-6(1H)-one] | –

Continued, compound first:

SMILES | Ki (human PDE2A1; [3]) [nM] | further results
Cc1nc(-c2ncc(C(C)c3ccc(C(F)(F)F)cc3)o2)cc(=O)[nH]1 (centres unmarked) [Example 8, 2-Methyl-6-(5-(1-(4-(trifluoromethyl)phenyl)ethyl)oxazol-2-yl)pyrimidin-4(3H)-one] | – | Ki (human PDE2A1; [1]): 403 nM; Ki (Rhesus PDE2A3; [2]): 352 nM
COc1ccc(Cc2nc(-c3cn(C(C)c4ccc(C(F)(F)F)cc4F)cn3)cc(=O)[nH]2)cc1OC (single isomer, unassigned) [Example 19, (R)- or (S)-2-(3,4-dimethoxy-benzyl)-6-(1-(1-(2-fluoro-4-(trifluoromethyl)phenyl)ethyl)-1H-imidazol-4-yl)pyrimidin-4(3H)-one] | 0.4 | Ki (Rhesus PDE2A3; [2]): 0.2 nM; Ki (Rhesus PDE2A3; [4]): 0.4 nM
Cc1nc(-c2cc([C@@H](C)c3ccc(C(F)(F)F)cc3F)ncn2)cc(=O)[nH]1 (single isomer, unassigned) [Example 31] | 16 | –
Cc1nc(-c2cc(=O)[nH]c(C)n2)cc(C(C)c2ccc(C(F)(F)F)cc2)n1 (centres unmarked) [Example 48, 2,2′-dimethyl-6′-(1-(4-(trifluoromethyl)phenyl)ethyl)-[4,4′-bipyrimidin]-6(1H)-one] | – | Ki (human PDE2A1; [1]): 312 nM; Ki (Rhesus PDE2A3; [2]): 516 nM
Cc1nc(-c2cc(C(C)c3ccc(OC(F)(F)F)cc3)ncn2)cc(=O)[nH]1 (single isomer, unassigned) [Example 44, (R)- or (S)-2-methyl-6′-(1-(4-(trifluoro-methoxy)phenyl)ethyl)-[4,4′-bipyrimidin]-6(1H)-one] | 4.1 | –
Cc1nc(-c2cc(C(C)c3ccc(C(F)(F)F)cc3)ncn2)cc(=O)[nH]1 (single isomer, unassigned) [Example 33] | 20 | –
Cc1nc(-c2cc(C(C)c3ccc(OC(F)(F)F)cc3)ncn2)cc(=O)[nH]1 (single isomer, unassigned) [Example 45, (S)- or (R)-2-methyl-6′-(1-(4-(trifluoro-methoxy)phenyl)ethyl)-[4,4′-bipyrimidin]-6(1H)-one] | 194 | –
Cc1nc(-c2cc(C(C)c3ccc(C(F)(F)F)cc3)ncn2)cc(=O)[nH]1 (single isomer, unassigned) [Example 32, (R)- or (S)-2-methyl-6′-(1-(4-(trifluoromethyl)phenyl)ethyl)-[4,4′-bipyrimi-din]-6(1H)-one] | 64 | –
Cc1nc(-c2cc(C(C)c3ccc(C(C)(F)F)cc3)ncn2)cc(=O)[nH]1 (single isomer, unassigned) [Example 36, (R)- or (S)-6′-(1-(4-(1,1-difluoro-ethyl)phenyl)ethyl)-2-methyl-[4,4′-bipyrimidin]-6(1H)-one] | 20 | –
